The term IC50 denotes the point on the concentration scale where inhibition reaches its midpoint.

Among the data in patent publication US9505745B2, “Enhancer of zeste homolog 2 inhibitors” (GlaxoSmithKline Intellectual Property (No.2) Limited, priority 2013, dated 2016) are IC50 values, retold here.

In experiment [1] the target is T1, EZH2 within the PRC2 complex (Homo sapiens (Human), UniProt Q15910). Kind of experiment: EZH2 methyltransferase SPA, biotinylated histone H3K27 peptide substrate (Assay Protocol 2). The format is biochemical. The settings on record: 3H-SAM, ≦10 nM approaches limit of detection. In short, it runs like this:
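Five-member human PRC2 complex (FLAG-EZH2, EED, SUZ12, RbAp48, AEBP2) co-expressed in Sf9 cells, 1 nM final, with 10 uM biotinylated H3K27 peptide, 0.15 uM 3H-SAM plus 2.85 uM cold SAM, pH 8, 60 min at rt. Quenched with cold SAM; SPA signal; IC50 from 11-point curves vs DMSO.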

For experiment [2], the target named is T1, EZH2 within the PRC2 complex. Kind of experiment: EZH2 methyltransferase SPA, mononucleosome substrate (Assay Protocol 1). To be noted: HeLa mononucleosome substrate, 3H-SAM, ≦10 nM approaches limit of detection. Type of experiment: biochemical. The protocol:
Compounds contained herein were evaluated for their ability to inhibit the methyltransferase activity of EZH2 within the PRC2 complex. Human PRC2 complex was prepared by co-expressing each of the 5 member proteins (FLAG-EZH2, EED, SUZ12, RbAp48, AEBP2) in Sf9 cells followed by co-purification. Enzyme activity was measured in a scintillation proximity assay (SPA) where a tritiated methyl group is transferred from 3H-SAM to a lysine residue on Histone H3 of a mononucleosome, purified from HeLa cells. Mononucleosomes were captured on SPA beads and the resulting signal is read on a ViewLux plate reader.
Part A. Compound Preparation
• 1. Prepare 10 mM stock of compounds from solid in 100% DMSO. • 2. Set up an 11-point serial dilution (1:3 dilution, top concentration 10 mM) in 100% DMSO for each test compound in a 384 well plate leaving columns 6 and 18 for DMSO controls. • 3. Dispense 100 nL of compound from the dilution plate into reaction plates (Grenier Bio-One, 384-well, Cat#784075). Part B. Reagent Preparation Prepare the following solutions: • 1. 50 mM Tris-HCl, pH 8: Per 1 L of base buffer, combine 1 M Tris-HCl, pH 8 (50 mL) and distilled water (950 mL). • 2. 1× Assay Buffer: Per 10 mL of 1× Assay Buffer, combine 50 mM Tris-HCl, pH 8 (9958 uL), 1 M MgCl2 (20 uL), 2 M DTT (20 uL), and 10% Tween-20 (2 uL) to provide a final concentration of 50 mM Tris-HCl, pH 8, 2 mM MgCl2, 4 mM DTT, 0.002% Tween-20. • 3. 2× Enzyme Solution: Per 10 mL of 2× Enzyme Solution, combine 1× Assay Buffer and PRC2 complex to provide a final enzyme concentration of 10 nM. • 4. SPA Bead Suspension: Per 1 mL of SPA Bead Suspension, combine PS-PEI coated LEADSeeker beads (40 mg) and H2O (1 mL) to provide a final concentration of 40 mg/mL. • 5. 2× Substrate Solution: Per 10 mL of 2× Substrate Solution, combine 1× Assay Buffer (9728.55 uL), 800 ug/mL mononucleosomes (125 uL), 1 mM cold SAM (4 uL), and 7.02 uM 3H-SAM (142.45 uL; 0.55 mCi/mL) to provide a final concentration of 5 ug/mL nucleosomes, 0.2 uM cold SAM, and 0.05 uM 3H-SAM. • 6. 2.67× Quench/Bead Mixture: Per 10 mL of 2.67× Quench/Bead Mixture, combine ddH2O (9358 uL), 10 mM cold SAM (267 uL), 40 mg/mL Bead Suspension (375 uL) to provide a final concentration of 100 uM cold SAM and 0.5 mg/mL SPA beads. Part C. Assay Reaction in 384-well Grenier Bio-One Plates Compound Addition • 1. Dispense 100 nL/well of 100× Compound to test wells (as noted above). • 2. Dispense 100 nL/well of 100% DMSO to columns 6 & 18 for high and low controls, respectively. Assay • 1. Dispense 5 uL/well of 1× Assay Buffer to column 18 (low control reactions). • 2. Dispense 5 uL/well of 2× Enzyme Solution to columns 1-17, 19-24. • 3. Spin assay plates for ˜1 min at 500 rpm. • 4. Stack the assay plates, covering the top plate. • 5. Incubate the compound/DMSO with the enzyme for 30 min at room temperature. • 6. Dispense 5 uL/well of 2× Substrate Solution to columns 1-24. • 7. Spin assay plates for ˜1 min at 500 rpm. • 8. Stack the assay plates, covering the top plate. • 9. Incubate the assay plates at room temperature for 1 hour. Quench/Bead Addition • 1. Dispense 5 uL/well of the 3× Quench/Bead Mixture to columns 1-24. • 2. Seal the top of each assay plate with adhesive TopSeal. • 3. Spin assay plates for ˜1 min at 500 rpm. • 4. Equilibrate the plates for >20 min. Read plates • 1. Read the assay plates on the Viewlux Plate Reader utilizing the 613 nm emission filter with a 300 s read time.
Reagent addition can be done manually or with automated liquid handler. • The final DMSO concentration in this assay is 1%. • The positive control is in column 6; negative control is in column 18. • Final starting concentration of compounds is 100 µM. Results
Percent inhibition was calculated relative to the DMSO control for each compound concentration and the resulting values were fit using standard IC50 fitting parameters within the ABASE data fitting software package.

T1 sequence (Q15910 whole entry): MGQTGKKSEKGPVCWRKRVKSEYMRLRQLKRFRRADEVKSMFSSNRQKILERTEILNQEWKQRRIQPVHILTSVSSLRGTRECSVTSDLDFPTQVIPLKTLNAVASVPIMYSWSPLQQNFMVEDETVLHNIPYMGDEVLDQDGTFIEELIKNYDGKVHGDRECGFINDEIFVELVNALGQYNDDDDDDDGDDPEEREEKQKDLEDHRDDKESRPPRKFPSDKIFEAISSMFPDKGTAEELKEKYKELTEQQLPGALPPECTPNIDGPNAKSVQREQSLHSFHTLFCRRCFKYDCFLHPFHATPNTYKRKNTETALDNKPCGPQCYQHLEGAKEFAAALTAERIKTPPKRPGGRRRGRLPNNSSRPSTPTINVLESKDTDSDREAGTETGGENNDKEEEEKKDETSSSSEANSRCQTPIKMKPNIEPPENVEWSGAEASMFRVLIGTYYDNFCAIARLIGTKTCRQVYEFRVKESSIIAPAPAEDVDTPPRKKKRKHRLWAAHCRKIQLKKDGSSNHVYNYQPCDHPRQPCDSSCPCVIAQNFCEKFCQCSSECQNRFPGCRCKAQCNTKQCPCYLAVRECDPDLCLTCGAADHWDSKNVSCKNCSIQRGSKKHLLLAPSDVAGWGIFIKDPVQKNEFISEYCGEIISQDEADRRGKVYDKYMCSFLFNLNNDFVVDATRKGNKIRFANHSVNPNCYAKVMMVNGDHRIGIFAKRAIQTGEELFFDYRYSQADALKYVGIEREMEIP
T1 sequence (O75530 whole entry partner): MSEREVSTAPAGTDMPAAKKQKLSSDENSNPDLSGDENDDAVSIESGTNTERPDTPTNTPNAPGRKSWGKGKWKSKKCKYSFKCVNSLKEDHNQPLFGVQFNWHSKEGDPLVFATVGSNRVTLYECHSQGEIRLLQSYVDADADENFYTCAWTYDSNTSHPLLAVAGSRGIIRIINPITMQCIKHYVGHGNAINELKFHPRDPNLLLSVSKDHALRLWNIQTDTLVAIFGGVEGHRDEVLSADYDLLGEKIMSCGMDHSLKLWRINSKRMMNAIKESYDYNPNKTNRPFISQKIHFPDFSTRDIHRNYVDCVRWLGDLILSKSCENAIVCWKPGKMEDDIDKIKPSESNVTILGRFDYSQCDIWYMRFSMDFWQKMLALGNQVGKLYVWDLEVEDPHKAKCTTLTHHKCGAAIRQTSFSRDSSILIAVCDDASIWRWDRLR
T1 sequence (Q15022 whole entry partner): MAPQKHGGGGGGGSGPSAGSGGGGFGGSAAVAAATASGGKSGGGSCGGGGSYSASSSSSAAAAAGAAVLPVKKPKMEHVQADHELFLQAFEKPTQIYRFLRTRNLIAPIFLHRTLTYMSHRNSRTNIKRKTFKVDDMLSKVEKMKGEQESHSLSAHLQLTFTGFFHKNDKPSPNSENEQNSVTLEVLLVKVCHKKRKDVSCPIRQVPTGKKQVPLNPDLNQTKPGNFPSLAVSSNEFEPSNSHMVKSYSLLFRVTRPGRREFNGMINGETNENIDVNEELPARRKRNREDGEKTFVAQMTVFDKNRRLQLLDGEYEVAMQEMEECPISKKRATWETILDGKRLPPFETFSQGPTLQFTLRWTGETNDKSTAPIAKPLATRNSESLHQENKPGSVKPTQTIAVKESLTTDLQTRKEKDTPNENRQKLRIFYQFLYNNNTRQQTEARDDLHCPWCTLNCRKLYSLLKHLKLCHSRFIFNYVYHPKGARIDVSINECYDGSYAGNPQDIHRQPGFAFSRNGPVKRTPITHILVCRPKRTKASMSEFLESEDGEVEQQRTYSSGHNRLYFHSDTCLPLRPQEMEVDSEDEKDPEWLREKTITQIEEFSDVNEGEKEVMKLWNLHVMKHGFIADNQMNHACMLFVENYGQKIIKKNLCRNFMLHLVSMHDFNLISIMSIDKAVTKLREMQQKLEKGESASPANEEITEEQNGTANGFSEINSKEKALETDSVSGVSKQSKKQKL
T1 sequence (Q09028 whole entry partner): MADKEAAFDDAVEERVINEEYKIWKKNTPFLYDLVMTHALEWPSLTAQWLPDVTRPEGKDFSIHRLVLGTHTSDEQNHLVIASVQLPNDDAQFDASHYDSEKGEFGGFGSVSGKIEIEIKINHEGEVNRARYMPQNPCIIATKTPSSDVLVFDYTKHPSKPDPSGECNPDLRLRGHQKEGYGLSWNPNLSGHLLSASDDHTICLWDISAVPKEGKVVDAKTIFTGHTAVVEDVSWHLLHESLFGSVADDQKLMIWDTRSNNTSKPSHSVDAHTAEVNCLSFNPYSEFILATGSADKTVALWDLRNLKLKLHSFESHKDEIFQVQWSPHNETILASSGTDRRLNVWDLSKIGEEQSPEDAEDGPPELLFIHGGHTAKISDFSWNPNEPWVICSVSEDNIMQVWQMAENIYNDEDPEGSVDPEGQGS
T1 sequence (Q6ZN18 whole entry partner): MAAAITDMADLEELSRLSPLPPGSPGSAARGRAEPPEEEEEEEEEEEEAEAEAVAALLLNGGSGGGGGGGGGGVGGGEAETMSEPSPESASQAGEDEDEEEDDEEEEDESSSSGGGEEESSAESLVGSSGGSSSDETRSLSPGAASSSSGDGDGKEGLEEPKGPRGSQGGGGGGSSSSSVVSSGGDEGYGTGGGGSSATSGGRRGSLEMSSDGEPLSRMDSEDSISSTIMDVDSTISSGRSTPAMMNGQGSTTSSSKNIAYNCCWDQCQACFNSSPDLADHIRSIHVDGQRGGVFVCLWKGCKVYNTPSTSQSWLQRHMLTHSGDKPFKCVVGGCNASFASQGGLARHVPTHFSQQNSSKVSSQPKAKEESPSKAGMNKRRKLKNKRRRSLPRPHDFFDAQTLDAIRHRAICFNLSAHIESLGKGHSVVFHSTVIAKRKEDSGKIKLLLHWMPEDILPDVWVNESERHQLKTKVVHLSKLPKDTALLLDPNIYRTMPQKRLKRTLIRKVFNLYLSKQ

As for `CCN(c1scc(C(=O)NCc2c(C)cc(C)[nH]c2=O)c1C)[C@H]1CC[C@@H](N(C)C)CC1` [Example 7, N-((4,6-dimethyl-2-oxo-1,2-dihydropyridin-3-yl)methyl)-5-(((cis)-4-(dimethylamino)cyclohexyl)(ethyl)amino)-4-methylthiophene-3-carboxamide], the IC50 in experiment [1] was 0.02 µM; in experiment [2] it was at most 0.01 µM.
Taken in the same sequence, the figures for `Cc1cc(C)c(CNC(=O)c2scc(OC(C)C)c2C)c(=O)[nH]1` [Example 1, N-((4,6-dimethyl-2-oxo-1,2-dihydropyridin-3-yl)methyl)-4-isopropoxy-3-methylthiophene-2-carboxamide] were 25.1 µM and 3.16 µM.
Turning to `Cc1cc(C)c(CNC(=O)c2cnn(-c3ccccc3)c2C)c(=O)[nH]1` [Example 9, N-((4,6-dimethyl-2-oxo-1,2-dihydropyridin-3-yl)methyl)-5-methyl-1-phenyl-1H-pyrazole-4-carboxamide], the IC50 came out at 63.1 µM in experiment [1] and 20 µM in experiment [2].
The like results for `CCN(c1csc(C(=O)NCc2c(C)cc(C)[nH]c2=O)c1C)C1CCOCC1` [Example 2, N-((4,6-Dimethyl-2-oxo-1,2-dihydropyridin-3-yl)methyl)-4-(ethyl(tetrahydro-2H-pyran-4-yl)amino)-3-methylthiophene-2-carboxamide] were, in that order, 0.2 µM and 0.063 µM.
The like results for `CCN(c1scc(C(=O)NCc2c(C)cc(C)[nH]c2=O)c1C)C1CCN(C(=O)OC(C)(C)C)CC1` [Example 11, tert-Butyl 4-((4-(((4,6-dimethyl-2-oxo-1,2-dihydropyridin-3-yl)methyl)carbamoyl)-3-methylthiophen-2-yl)(ethyl)amino)piperidine-1-carboxylate] were, in that order, 0.02 µM and 0.016 µM.
Taken in the same sequence, the figures for `Cc1cc(C)c(CNC(=O)c2csc(C(O)C3CCN(C(=O)OC(C)(C)C)CC3)c2C)c(=O)[nH]1` (centres unmarked) [Example 20, tert-Butyl 4-((4-(((4,6-dimethyl-2-oxo-1,2-dihydropyridin-3-yl)methyl)carbamoyl)-3-methylthiophen-2-yl)(hydroxy)methyl)piperidine-1-carboxylate] were 1.59 µM and 0.158 µM.
`CCN(c1c(C)c(C(=O)NCc2c(C)cc(C)[nH]c2=O)nn1C)C1CCOCC1` [Example 14, N-[(4,6-dimethyl-2-oxo-1,2-dihydro-3-pyridinyl)methyl]-5-[ethyl(tetrahydro-2H-pyran-4-yl)amino]-1,4-dimethyl-1H-pyrazole-3-carboxamide]: the IC50 in experiment [1] stood at 2 µM; in experiment [2], 0.63 µM.
The like results for `CCCc1cc(C)[nH]c(=O)c1CNC(=O)c1csc(N(CC)[C@H]2CC[C@H](N(C)C)CC2)c1C` [Example 16, 5-(((trans)-4-(Dimethylamino)cyclohexyl)(ethyl)amino)-4-methyl-N-((6-methyl-2-oxo-4-propyl-1,2-dihydropyridin-3-yl)methyl)thiophene-3-carboxamide] were, in that order, 0.025 µM and at most 0.01 µM.
Taken in the same sequence, the figures for `CCN(c1scc(C(=O)NCc2c(C)cc(C)[nH]c2=O)c1C)[C@H]1CC[C@H](N(C)C)CC1` [Example 8, N-((4,6-dimethyl-2-oxo-1,2-dihydropyridin-3-yl)methyl)-5-(((trans)-4-(dimethylamino)cyclohexyl)(ethyl)amino)-4-methylthiophene-3-carboxamide] were 0.013 µM and at most 0.01 µM.
Taken in the same sequence, the figures for `CCN(c1scc(C(=O)NCc2c(OC)cc(C)[nH]c2=O)c1C)[C@H]1CC[C@H](N(C)C)CC1` [Example 18, 5-(((trans)-4-(Dimethylamino)cyclohexyl)(ethyl)amino)-N-((4-methoxy-6-methyl-2-oxo-1,2-dihydropyridin-3-yl)methyl)-4-methylthiophene-3-carboxamide] were 0.013 µM and at most 0.01 µM.
